Key:
giant foxtail = test: Test B pre/postemergence giant foxtail; format: in vivo, Setaria faberii
Summary of the method: (§1)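 Response is a visual 0-to-10 score relative to untreated plants, where 0 means no effect and 10 means complete control, taken twelve to sixteen days after application. Treatments went onto soil at planting and onto foliage of 1- to 4-leaf plants, using a surfactant-containing non-phytotoxic solvent.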

pigweed = test: Test B pre/postemergence pigweed; format: in vivo, Amaranthus retroflexus
Summary of the method: as §1

rice = test: Test B flood test rice; format: in vivo, Oryza sativa
Summary of the method: (§2)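 Each value is a visual injury score relative to controls, with 10 meaning complete control and 0 no effect. Evaluation took place twelve to sixteen days after the 2-leaf-stage plants were treated and kept in the greenhouse.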

soybean = test: Test B pre/postemergence soybean; format: in vivo, Glycine max
Summary of the method: as §1

cocklebur = test: Test B pre/postemergence cocklebur; format: in vivo, Xanthium strumarium
Summary of the method: as §1

bedstraw = test: Test B pre/postemergence bedstraw; format: in vivo, Galium aparine
Summary of the method: as §1

smallflower flatsedge = test: Test B flood test smallflower flatsedge; format: in vivo, Cyperus difformis
Summary of the method: as §2

wheat = test: Test B pre/postemergence wheat; format: in vivo, Triticum aestivum
Summary of the method: as §1

rape = test: Test B pre/postemergence rape; format: in vivo, Brassica napus
Summary of the method: as §1

morningglory = test: Test B pre/postemergence morningglory; format: in vivo, Ipomoea hederacea
Summary of the method: as §1

blackgrass = test: Test B pre/postemergence blackgrass; format: in vivo, Alopecurus myosuroides
Summary of the method: as §1

corn = test: Test B pre/postemergence corn; format: in vivo, Zea mays
Summary of the method: as §1

sugar beet = test: Test B pre/postemergence sugar beet; format: in vivo, Beta vulgaris
Summary of the method: as §1

surinam grass = test: Test B pre/postemergence surinam grass; format: in vivo, Brachiaria decumbens
Summary of the method: as §1

wild oat = test: Test B pre/postemergence wild oat; format: in vivo, Avena fatua
Summary of the method: as §1

velvetleaf = test: Test B pre/postemergence velvetleaf; format: in vivo, Abutilon theophrasti
Summary of the method: as §1

[1] = Postemergence, Rate 31 g/ha, visual rating, scale 0 to 10 (0 no effect, 10 complete control)
[2] = Preemergence, Rate 31 g/ha, visual rating, scale 0 to 10 (0 no effect, 10 complete control)
[3] = Preemergence, Rate 62 g/ha, scale of 0 to 10 where 0 is no effect and 10 is complete control
[4] = Preemergence, Rate 250 g/ha, scale of 0 to 10 where 0 is no effect and 10 is complete control
[5] = Rate 62 g/ha, Postemergence, scale 0 to 10 (0 no effect, 10 complete control)
[6] = Rate 125 g/ha, Postemergence, scale of 0 to 10 where 0 is no effect and 10 is complete control
[7] = Rate 250 g/ha, Postemergence, scale of 0 to 10 where 0 is no effect and 10 is complete control
[8] = Rate 31 g/ha, Pre-emergence section (flood test species), scale 0 to 10
[9] = Rate 62 g/ha, headed Pre-emergence (flood test species), scale 0 to 10 (0 no effect, 10 complete control)
[10] = Rate 125 g/ha, Pre-emergence, flood test species, scale 0 to 10 where 0 is no effect and 10 is complete control
[11] = Rate 250 g/ha, Pre-emergence, flood-test species, scale 0 to 10, 0 is no effect, 10 is complete control

Cc1cccc(C)c1-n1c(=O)on(C(=O)N(c2ccc(Cl)cc2Cl)C2CCC2)c1=O [Compound 318]
1: Plant response rating, Soybean (soybean; [7])
0: Giant foxtail plant response rating (giant foxtail; [1]) | Giant foxtail plant response rating (giant foxtail; [2]) | Giant foxtail plant response rating (giant foxtail; [3]) | Giant foxtail plant response rating (0 to 10 scale) (giant foxtail; Preemergence, Rate 125 g/ha) | Giant foxtail plant response rating (giant foxtail; [4]) | Giant foxtail plant response rating (giant foxtail; [5]) | Giant foxtail plant response rating (giant foxtail; [6]) | Plant response rating, Giant foxtail (giant foxtail; [7]) | Redroot pigweed plant response rating (pigweed; [1]) | Redroot pigweed plant response rating (pigweed; [3]) | Redroot pigweed plant response rating (0 to 10 scale) (pigweed; Preemergence, Rate 125 g/ha) | Redroot pigweed plant response rating (pigweed; [4]) | Redroot pigweed plant response rating (pigweed; [5]) | Redroot pigweed plant response rating (pigweed; [6]) | Plant response rating, Redroot pigweed (pigweed; [7]) | Rice plant response rating (rice; [8]) | Rice plant response rating (rice; [9]) | Rice plant response rating (rice; [10]) | Rice plant response rating (rice; [11]) | Soybean plant response rating (soybean; [1]) | Soybean plant response rating (soybean; [3]) | Soybean plant response rating (0 to 10 scale) (soybean; Preemergence, Rate 125 g/ha) | Soybean plant response rating (soybean; [4]) | Soybean plant response rating (soybean; [5]) | Soybean plant response rating (soybean; [6]) | Cocklebur plant response rating (cocklebur; [1]) | Cocklebur plant response rating (cocklebur; [2]) | Cocklebur plant response rating (cocklebur; [3]) | Cocklebur plant response rating (0 to 10 scale) (cocklebur; Preemergence, Rate 125 g/ha) | Cocklebur plant response rating (cocklebur; [4]) | Cocklebur plant response rating (cocklebur; [5]) | Cocklebur plant response rating (cocklebur; [6]) | Bedstraw plant response rating (bedstraw; [1]) | Bedstraw plant response rating (0 to 10 scale) (bedstraw; Preemergence, Rate 125 g/ha) | Bedstraw plant response rating (bedstraw; [4]) | Bedstraw plant response rating (bedstraw; [5]) | Bedstraw plant response rating (bedstraw; [6]) | Plant response rating, Bedstraw (bedstraw; [7]) | S. Flatsedge plant response rating (smallflower flatsedge; [8]) | S. Flatsedge plant response rating (smallflower flatsedge; [9]) | S. Flatsedge plant response rating (smallflower flatsedge; [10]) | S. Flatsedge plant response rating (smallflower flatsedge; [11]) | Wheat plant response rating (wheat; [1]) | Wheat plant response rating (wheat; [3]) | Wheat plant response rating (0 to 10 scale) (wheat; Preemergence, Rate 125 g/ha) | Wheat plant response rating (wheat; [4]) | Wheat plant response rating (wheat; [5]) | Wheat plant response rating (wheat; [6]) | Plant response rating, Wheat (wheat; [7]) | Rape plant response rating (rape; [1]) | Rape plant response rating (rape; [3]) | Rape plant response rating (0 to 10 scale) (rape; Preemergence, Rate 125 g/ha) | Rape plant response rating (rape; [4]) | Rape plant response rating (rape; [5]) | Rape plant response rating (rape; [6]) | Plant response rating, Rape (rape; [7]) | Morningglory plant response rating (morningglory; [1]) | Morningglory plant response rating (morningglory; [3]) | Morningglory plant response rating (0 to 10 scale) (morningglory; Preemergence, Rate 125 g/ha) | Morningglory plant response rating (morningglory; [4]) | Morningglory plant response rating (morningglory; [5]) | Morningglory plant response rating (morningglory; [6]) | Blackgrass plant response rating (blackgrass; [1]) | Blackgrass plant response rating (blackgrass; [2]) | Blackgrass plant response rating (blackgrass; [3]) | Blackgrass plant response rating (0 to 10 scale) (blackgrass; Preemergence, Rate 125 g/ha) | Blackgrass plant response rating (blackgrass; [4]) | Blackgrass plant response rating (blackgrass; [5]) | Blackgrass plant response rating (blackgrass; [6]) | Plant response rating, Blackgrass (blackgrass; [7]) | Corn plant response rating (corn; [1]) | Corn plant response rating (corn; [2]) | Corn plant response rating (corn; [3]) | Corn plant response rating (0 to 10 scale) (corn; Preemergence, Rate 125 g/ha) | Corn plant response rating (corn; [4]) | Corn plant response rating (corn; [5]) | Corn plant response rating (corn; [6]) | Plant response rating, Corn (corn; [7]) | Sugarbeets plant response rating (sugar beet; [1]) | Sugarbeets plant response rating (sugar beet; [3]) | Sugarbeets plant response rating (0 to 10 scale) (sugar beet; Preemergence, Rate 125 g/ha) | Sugarbeets plant response rating (sugar beet; [4]) | Sugarbeets plant response rating (sugar beet; [5]) | Sugarbeets plant response rating (sugar beet; [6]) | Plant response rating, Sugarbeets (sugar beet; [7]) | B. signalgrass plant response rating (surinam grass; [1]) | B. signalgrass plant response rating (surinam grass; [2]) | B. signalgrass plant response rating (surinam grass; [3]) | B. signalgrass plant response rating (0 to 10 scale, 0 is no effect, 10 is complete control) (surinam grass; Preemergence, Rate 125 g/ha) | B. signalgrass plant response rating (surinam grass; [4]) | B. signalgrass plant response rating (surinam grass; [5]) | B. signalgrass plant response rating (surinam grass; [6]) | Plant response rating, B. signalgrass (surinam grass; [7]) | Wild oats plant response rating (wild oat; [1]) | Wild oats plant response rating (wild oat; [3]) | Wild oats plant response rating (0 to 10 scale) (wild oat; Preemergence, Rate 125 g/ha) | Wild oats plant response rating (wild oat; [4]) | Wild oats plant response rating (wild oat; [5]) | Wild oats plant response rating (wild oat; [6]) | Plant response rating, Wild oats (wild oat; [7]) | Velvetleaf plant response rating (velvetleaf; [1]) | Velvetleaf plant response rating (velvetleaf; [3]) | Velvetleaf plant response rating (0 to 10 scale) (velvetleaf; Preemergence, Rate 125 g/ha) | Velvetleaf plant response rating (velvetleaf; [4]) | Velvetleaf plant response rating (velvetleaf; [5]) | Velvetleaf plant response rating (velvetleaf; [6]) | Plant response rating, Velvetleaf (velvetleaf; [7])
3: Plant response rating, Morningglory (morningglory; [7])
5: Plant response rating, Cocklebur (cocklebur; [7])

From patent publication US6737383B1, “Herbicidal oxadiazolidines” (priority 1999, dated 2004)
